According to US9156801B2, “2-substituted oleanolic acid derivative, method preparing for same, and application thereof” (HANGZHOU BENSHENG PHARMACEUTICAL CO., LTD., priority 2011, dated 2015):
In brackets after ≈: the same amount, converted by molar mass.

Legend:
Hela cell line = experiment: solid tumor cell growth inhibition, MTT; assay type: cell-based; settings: Homo sapiens, 72 h; for IC50: HeLa; for inhibition at 16 µg/mL: Hela, 16 μg/mL compound, read-out: IR (cell proliferation inhibition rate)
Method in brief: (§1)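 Cells grown in DMEM high glucose supplemented with 10% fetal bovine serum were plated at 4000 per well. After 24 h at 37° C in 5% CO2, varying compound concentrations were added for a further 72 h before MTT determination of viable cells.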

MGC 803 cell line = experiment: solid tumor cell growth inhibition, MTT; assay type: cell-based; settings: Homo sapiens; for inhibition at 16 µg/mL: MGC 803, 16 μg/mL compound, 72 h, read-out: IR (cell proliferation inhibition rate); for IC50: MGC 803, 72 h
Method in brief: as §1

RKO cell line = experiment: solid tumor cell growth inhibition, MTT; assay type: cell-based; settings: Homo sapiens, 72 h; for inhibition at 16 µg/mL: 16 μg/mL compound, read-out: IR (cell proliferation inhibition rate)
Method in brief: as §1

CNE cell line = experiment: solid tumor cell growth inhibition, MTT; assay type: cell-based; settings: Homo sapiens, 72 h; for inhibition at 16 µg/mL: 16 μg/mL compound, read-out: IR (cell proliferation inhibition rate)
Method in brief: as §1

SK-OV-3 cell line = experiment: solid tumor cell growth inhibition, MTT; assay type: cell-based; settings: Homo sapiens; for IC50: SK-OV-3, 72 h; for inhibition at 16 µg/mL: SK-OV-3, 16 μg/mL compound, 72 h, read-out: IR (cell proliferation inhibition rate)
Method in brief: as §1

PC-3 cell line = experiment: solid tumor cell growth inhibition, MTT; assay type: cell-based; settings: Homo sapiens; for IC50: PC-3, 72 h; for inhibition at 16 µg/mL: PC-3, 16 μg/mL compound, 72 h, read-out: IR (cell proliferation inhibition rate)
Method in brief: as §1

MG-63 cell line = experiment: solid tumor cell growth inhibition, MTT; assay type: cell-based; settings: Homo sapiens; for IC50: MG-63, 72 h; for inhibition at 16 µg/mL: MG-63, 16 μg/mL compound, 72 h, read-out: IR (cell proliferation inhibition rate)
Method in brief: as §1

PANC-1 cell line = experiment: solid tumor cell growth inhibition, MTT; assay type: cell-based; settings: Homo sapiens; for IC50: PANC-1, 72 h; for inhibition at 16 µg/mL: PANC-1, 16 μg/mL compound, 72 h, read-out: IR (cell proliferation inhibition rate)
Method in brief: as §1

A549 cell line = experiment: solid tumor cell growth inhibition, MTT; assay type: cell-based; settings: Homo sapiens; for IC50: A549, 72 h; for inhibition at 16 µg/mL: A549, 16 μg/mL compound, 72 h, read-out: IR (cell proliferation inhibition rate)
Method in brief: as §1

Becap37 cell line = experiment: solid tumor cell growth inhibition, MTT; assay type: cell-based; settings: Homo sapiens; for inhibition at 16 µg/mL: Becap37, 16 μg/mL compound, 72 h, read-out: IR (cell proliferation inhibition rate); for IC50: Becap37, 72 h
Method in brief: as §1

Hep-2 cell line = experiment: solid tumor cell growth inhibition, MTT; assay type: cell-based; settings: Homo sapiens; for IC50: HEp-2, 72 h; for inhibition at 16 µg/mL: Hep-2, 16 μg/mL compound, 72 h, read-out: IR (cell proliferation inhibition rate)
Method in brief: as §1

CaES-17 cell line = experiment: solid tumor cell growth inhibition, MTT; assay type: cell-based; settings: Homo sapiens, CaEs17; for inhibition at 16 µg/mL: CaES-17, 16 μg/mL compound, 72 h, read-out: IR (cell proliferation inhibition rate); for IC50: CaES-17, 72 h
Method in brief: as §1

U87 MG cell line = experiment: solid tumor cell growth inhibition, MTT; assay type: cell-based; settings: Homo sapiens, U-87 MG, 72 h; for inhibition at 16 µg/mL: 16 μg/mL compound, read-out: IR (cell proliferation inhibition rate)
Method in brief: as §1

Hep G2 cell line = experiment: solid tumor cell growth inhibition, MTT; assay type: cell-based, human; settings: Homo sapiens; for inhibition at 16 µg/mL: HepG2, 72 h, Hep G2, 16 μg/mL compound, 72 h, read-out: IR (cell proliferation inhibition rate); for IC50: HepG2, Hep G2, 72 h
Method in brief: as §1

RPMI8226 cell line = experiment: multiple myeloma cell growth inhibition, MTT; assay type: cell-based; settings: Homo sapiens, RPMI-8226; for inhibition at 16 µg/mL: RPMI8226, 16 μg/mL compound, 72 h, read-out: IR (cell proliferation inhibition rate); for IC50: RPMI8226, 72 h
Method in brief: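 Viability was measured by MTT after a 72 h compound exposure (37° C, 5% CO2) of RPMI8226 myeloma cells seeded at 6000 per well in 1640 medium with 10% fetal bovine serum. Growth inhibition was expressed relative to untreated cells, taken as 0%.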

H9 cell line = experiment: leukemia cell growth inhibition, MTT; assay type: cell-based; settings: Homo sapiens; for IC50: H9, 72 h; for inhibition at 16 µg/mL: H9, 16 μg/mL compound, 72 h, read-out: IR (cell proliferation inhibition rate)
Method in brief: (§2)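 Proliferation inhibition was read by MTT after 72 h of compound exposure (37 °C, 5% CO2), untreated wells defining 0%. Each well held 6000 cells in 1640 medium plus 10% fetal bovine serum, with test compounds at varied concentrations.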

K562/adr cell line = experiment: leukemia cell growth inhibition, MTT; assay type: cell-based; settings: Homo sapiens, 72 h; for IC50: K562/Adr; for inhibition at 16 µg/mL: K562/adr, 16 μg/mL compound, read-out: IR (cell proliferation inhibition rate)
Method in brief: as §2

Jurkat cell line = experiment: leukemia cell growth inhibition, MTT; assay type: cell-based; settings: Homo sapiens, 72 h; for inhibition at 16 µg/mL: 16 μg/mL compound, read-out: IR (cell proliferation inhibition rate)
Method in brief: as §2

NB4 cell line = experiment: leukemia cell growth inhibition, MTT; assay type: cell-based; settings: Homo sapiens, NB-4; for inhibition at 16 µg/mL: NB4, 16 μg/mL compound, 72 h, read-out: IR (cell proliferation inhibition rate); for IC50: NB4, 72 h
Method in brief: as §2

Kasumi-1 cell line = experiment: leukemia cell growth inhibition, MTT; assay type: cell-based; settings: Homo sapiens; for inhibition at 16 µg/mL: Kasumi-1, 16 μg/mL compound, 72 h, read-out: IR (cell proliferation inhibition rate); for IC50: Kasumi-1, 72 h
Method in brief: as §2

| Compound | IC50 (Hela cell line) [µg/mL] | inhibition at 16 µg/mL (Hela cell line) [%] | inhibition at 16 µg/mL (MGC 803 cell line) [%] | IC50 (MGC 803 cell line) [µg/mL] | inhibition at 16 µg/mL (RKO cell line) [%] | IC50 (RKO cell line) [µg/mL] | inhibition at 16 µg/mL (CNE cell line) [%] | IC50 (CNE cell line) [µg/mL] | IC50 (SK-OV-3 cell line) [µg/mL] | inhibition at 16 µg/mL (SK-OV-3 cell line) [%] | IC50 (PC-3 cell line) [µg/mL] | inhibition at 16 µg/mL (PC-3 cell line) [%] | IC50 (MG-63 cell line) [µg/mL] | inhibition at 16 µg/mL (MG-63 cell line) [%] | IC50 (PANC-1 cell line) [µg/mL] | inhibition at 16 µg/mL (PANC-1 cell line) [%] | IC50 (A549 cell line) [µg/mL] | inhibition at 16 µg/mL (A549 cell line) [%] | inhibition at 16 µg/mL (Becap37 cell line) [%] | IC50 (Becap37 cell line) [µg/mL] | further results |
| --- | --- | --- | --- | --- | --- | --- | --- | --- | --- | --- | --- | --- | --- | --- | --- | --- | --- | --- | --- | --- | --- |
| COC(=O)[C@]12CCC(C)(C)C[C@H]1C1=CC[C@@H]3[C@@]4(C)CC(C(=O)NCCN5CCCCC5)C(=O)C(C)(C)[C@@H]4CC[C@@]3(C)[C@]1(C)CC2 (some centres unmarked) [BS-OA-004] | 9.28 (≈ 14.9 µM) | 99.4 | 98.1 | 7.32 (≈ 11.8 µM) | 98.9 | 7.4 (≈ 11.9 µM) | 97.3 | 8.46 (≈ 13.6 µM) | 9.14 (≈ 14.7 µM) | 94.9 | 9.91 (≈ 15.9 µM) | 89.8 | 8.37 (≈ 13.4 µM) | 99 | 8.77 (≈ 14.1 µM) | 94.1 | 7.7 (≈ 12.4 µM) | 92 | 43.9 | > 16 | IC50 (Hep-2 cell line): 10.1 µg/mL (≈ 16.2 µM); inhibition at 16 µg/mL (Hep-2 cell line): 85.5%; inhibition at 16 µg/mL (CaES-17 cell line): 81.2%; IC50 (CaES-17 cell line): 8.88 µg/mL (≈ 14.3 µM); inhibition at 16 µg/mL (U87 MG cell line): 98%; IC50 (U87 MG cell line): 10 µg/mL (≈ 16.1 µM); inhibition at 16 µg/mL (Hep G2 cell line): 100%; IC50 (Hep G2 cell line): 4.89 µg/mL (≈ 7.85 µM); inhibition at 16 µg/mL (RPMI8226 cell line): 98.3%; IC50 (RPMI8226 cell line): 2.08 µg/mL (≈ 3.34 µM); IC50 (H9 cell line): 5.67 µg/mL (≈ 9.1 µM); inhibition at 16 µg/mL (H9 cell line): 98.2%; IC50 (K562/adr cell line): 2.41 µg/mL (≈ 3.87 µM); inhibition at 16 µg/mL (K562/adr cell line): 98.3%; inhibition at 16 µg/mL (Jurkat cell line): 97.7%; IC50 (Jurkat cell line): 6.15 µg/mL (≈ 9.87 µM); inhibition at 16 µg/mL (NB4 cell line): 100%; IC50 (NB4 cell line): 2.84 µg/mL (≈ 4.56 µM); inhibition at 16 µg/mL (Kasumi-1 cell line): 99.6%; IC50 (Kasumi-1 cell line): 6.5 µg/mL (≈ 10.4 µM) |
| COC(=O)[C@]12CCC(C)(C)CC1C1=CCC3[C@@]4(C)CC(C(=O)NCCCN(C)C)C(=O)C(C)(C)C4CC[C@@]3(C)[C@]1(C)CC2 (some centres unmarked) [BS-OA-042] | 3.47 (≈ 5.81 µM) | 98.9 | 99.2 | 2.84 (≈ 4.76 µM) | 100 | 3.29 (≈ 5.51 µM) | 99.5 | 3.89 (≈ 6.52 µM) | 3.63 (≈ 6.08 µM) | 97.9 | 4.78 (≈ 8.01 µM) | 100 | 2.72 (≈ 4.56 µM) | 98.2 | 5.02 (≈ 8.41 µM) | 99.4 | 2.06 (≈ 3.45 µM) | 96.9 | 98.7 | 4.32 (≈ 7.24 µM) | IC50 (Hep-2 cell line): 5.99 µg/mL (≈ 10 µM); inhibition at 16 µg/mL (Hep-2 cell line): 95.2%; inhibition at 16 µg/mL (CaES-17 cell line): 98.1%; IC50 (CaES-17 cell line): 2.97 µg/mL (≈ 4.98 µM); inhibition at 16 µg/mL (U87 MG cell line): 98.6%; IC50 (U87 MG cell line): 2.54 µg/mL (≈ 4.26 µM); inhibition at 16 µg/mL (Hep G2 cell line): > 96%; IC50 (Hep G2 cell line): 2.36 µg/mL (≈ 3.95 µM); inhibition at 16 µg/mL (RPMI8226 cell line): 98.9%; IC50 (RPMI8226 cell line): 0.68 µg/mL (≈ 1.14 µM); IC50 (H9 cell line): 3.12 µg/mL (≈ 5.23 µM); inhibition at 16 µg/mL (H9 cell line): 95.9%; IC50 (K562/adr cell line): 0.64 µg/mL (≈ 1.07 µM); inhibition at 16 µg/mL (K562/adr cell line): 98.4%; inhibition at 16 µg/mL (Jurkat cell line): 99%; IC50 (Jurkat cell line): 2.43 µg/mL (≈ 4.07 µM); inhibition at 16 µg/mL (NB4 cell line): 100%; IC50 (NB4 cell line): 2.63 µg/mL (≈ 4.41 µM); inhibition at 16 µg/mL (Kasumi-1 cell line): 99.1%; IC50 (Kasumi-1 cell line): 4.1 µg/mL (≈ 6.87 µM) |
